Activity calls are given as the source filed them. No cut-off for these calls is given here. Positions of bridges follow the written chain, without caps; N, C: chain ends. Non-standard residues stand in square brackets, D forms with d. Residues, ends and D or L forms follow the SMILES beside them. ξ: configuration not given here. *: point of attachment. Biotin = O=C1N[C@H]2[C@H](CS[C@H]2CCCCC(=O)*)N1; R5 = C=CCCC[C@@](C)(N)C(=O)O; ξIle = CC[C@H](C)C(N)C(=O)O; Ahx = NCCCCCC(=O)O
Assays:
[1] = target: T1, Nuclear factor erythroid 2-related factor 2 (Homo sapiens) (UniProt Q16236); assay: Inhibition of human Nrf2 in HEK-293T cells expressing ARE-firefly luciferase and TK-Renilla luciferase at 0 to 100 uM incubated for 16 hrs by Dual-Luciferase reporter based luminometer analysis; format: cell-based; conditions: dose 0-100 µM
T1 sequence (whole entry): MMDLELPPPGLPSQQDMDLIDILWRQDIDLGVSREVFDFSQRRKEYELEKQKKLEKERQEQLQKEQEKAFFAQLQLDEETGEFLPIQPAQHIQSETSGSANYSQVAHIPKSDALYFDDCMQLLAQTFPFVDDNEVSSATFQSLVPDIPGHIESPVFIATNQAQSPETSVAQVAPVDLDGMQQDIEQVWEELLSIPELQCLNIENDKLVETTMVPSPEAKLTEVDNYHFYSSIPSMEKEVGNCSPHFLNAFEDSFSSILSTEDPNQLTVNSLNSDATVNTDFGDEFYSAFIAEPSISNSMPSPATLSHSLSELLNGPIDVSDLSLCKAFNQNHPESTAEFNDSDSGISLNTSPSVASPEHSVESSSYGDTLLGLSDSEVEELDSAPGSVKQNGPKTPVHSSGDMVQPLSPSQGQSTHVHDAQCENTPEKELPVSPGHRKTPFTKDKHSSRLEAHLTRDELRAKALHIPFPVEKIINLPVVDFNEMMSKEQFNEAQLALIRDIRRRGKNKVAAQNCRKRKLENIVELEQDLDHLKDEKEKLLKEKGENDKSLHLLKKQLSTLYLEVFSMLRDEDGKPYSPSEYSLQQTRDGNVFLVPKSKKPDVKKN

[2] = Stability of compound assessed as proteinase K (unknown origin) mediated compound degradation at 55 uM measured upto 24 hrs by LC/MS analysis; format: ADME; conditions: human
[3] = target: T1, Nuclear factor erythroid 2-related factor 2 (Homo sapiens); assay: Inhibition of human Nrf2 in HEK-293T cells expressing NQO1-ARE-firefly luciferase and TK-Renilla luciferase at 50 uM incubated for 16 hrs by Dual-Luciferase reporter based luminometer analysis; format: cell-based
[4] = Stability of compound assessed as proteinase K (unknown origin) mediated compound degradation at 55 uM measured after 40 mins by LC/MS analysis; format: ADME; conditions: human
[5] = target: T2, Transcription factor MafG (Homo sapiens, UniProt O15525); assay: Binding affinity to human His-tagged MafG expressed in Escherichia coli Rosetta (DE3) by immunoprecipitation assay
T2 sequence (O15525 whole entry): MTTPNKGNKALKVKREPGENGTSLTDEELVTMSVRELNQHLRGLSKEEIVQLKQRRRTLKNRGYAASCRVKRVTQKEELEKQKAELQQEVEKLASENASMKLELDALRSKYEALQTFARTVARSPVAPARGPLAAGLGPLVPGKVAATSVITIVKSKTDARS

[6] = target: T2, Transcription factor MafG; assay: Binding affinity to human His-tagged MafG at 1 uM incubated for 10 mins with 188 to 3000 nM protein by SPR analysis
[7] = target: T2, Transcription factor MafG; assay: Binding affinity to human His-tagged MafG assessed as dissociation constant incubated for 10 mins by SPR analysis
Albumin = Albumin (Bos taurus, UniProt P02769); assay: Binding affinity to bovine serum albumin at 1 uM by SPR analysis; conditions: cattle
Sequence of Albumin (P02769 whole entry): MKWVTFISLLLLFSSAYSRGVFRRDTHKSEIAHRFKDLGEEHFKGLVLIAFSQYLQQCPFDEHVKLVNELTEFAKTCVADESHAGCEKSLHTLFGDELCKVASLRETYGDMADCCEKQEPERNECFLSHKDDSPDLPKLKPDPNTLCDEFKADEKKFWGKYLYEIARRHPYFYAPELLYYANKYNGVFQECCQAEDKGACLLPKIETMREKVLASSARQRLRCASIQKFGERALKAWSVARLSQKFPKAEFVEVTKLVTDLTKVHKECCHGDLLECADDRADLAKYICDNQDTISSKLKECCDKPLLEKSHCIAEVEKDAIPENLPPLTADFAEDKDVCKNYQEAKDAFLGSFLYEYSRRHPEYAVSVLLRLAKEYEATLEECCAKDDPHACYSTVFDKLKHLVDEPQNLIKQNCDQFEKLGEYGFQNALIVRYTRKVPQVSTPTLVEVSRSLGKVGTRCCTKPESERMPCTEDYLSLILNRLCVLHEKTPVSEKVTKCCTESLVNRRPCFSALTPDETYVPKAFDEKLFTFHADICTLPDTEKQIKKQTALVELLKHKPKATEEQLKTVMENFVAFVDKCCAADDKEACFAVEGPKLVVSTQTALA

[8] = target: T2, Transcription factor MafG; assay: Binding affinity to human His-tagged MafG expressed in Escherichia coli Rosetta (DE3) incubated in presence of unlabeled peptide by immunoprecipitation assay

inhibition [3] | Activity [5] | further results | Compound
– | – | inhibition [1]: inactive | CC(=O)N[C@@H](C)C(=O)N[C@H](C(=O)N[C@@H](CCC(=O)O)C(=O)N[C@@H](C)C(=O)N[C@@H](CCC(=O)O)C(=O)N[C@]1(C)CCC/C=C\CCC[C@](C)(C(=O)N[C@@H](C)C(=O)N[C@@H](CCCCN)C(=O)N[C@@H](CC(=O)O)C(=O)N[C@@H](CCC(=O)O)C(=O)N[C@@H](C)C(=O)N[C@@H](CCC(=O)O)C(N)=O)NC(=O)[C@H](CC(=O)O)NC(=O)[C@H](C)NC(=O)[C@H](CC(=O)O)NC1=O)C(C)C (Ac-AVEAE[R5]DAD[R5]AKDEAE-NH2; staple (Z) 6-10)
inactive | – | Stability [2]: Stable | CC(=O)N[C@@H](CC(=O)O)C(=O)N[C@@H](CCC(=O)O)C(=O)N[C@@H](CCCCN)C(=O)N[C@@H](CCC(=O)O)C(=O)N[C@@H](CCCCN)C(=O)N[C@@H](CC(C)C)C(=O)N[C@]1(C)CCC/C=C\CCC[C@](C)(C(=O)N[C@@H](CCC(=O)O)C(=O)N[C@@H](CC(N)=O)C(=O)N[C@@H](CC(=O)O)C(=O)N[C@@H](CCCCN)C(=O)N[C@@H](CO)C(N)=O)NC(=O)[C@H](CCCCN)NC(=O)[C@H](CCC(=O)O)NC(=O)[C@H](CCCCN)NC1=O (Ac-DEKEKL[R5]KEK[R5]ENDKS-NH2; staple (Z) 7-11)
inactive | – | Stability [4]: Unstable | CC(=O)N[C@@H](CC(=O)O)C(=O)N[C@@H](CC(C)C)C(=O)N[C@@H](CC(=O)O)C(=O)N[C@@H](Cc1c[nH]cn1)C(=O)N[C@@H](CC(C)C)C(=O)N[C@]1(C)CCC/C=C\CCC[C@](C)(C(=O)N[C@@H](CCCCN)C(=O)N[C@@H](CC(C)C)C(=O)N[C@@H](CC(C)C)C(=O)N[C@@H](CCCCN)C(=O)N[C@@H](CCC(=O)O)C(=O)N[C@@H](CCCCN)C(N)=O)NC(=O)[C@H](CCCCN)NC(=O)[C@H](CCC(=O)O)NC(=O)[C@H](CC(=O)O)NC1=O (Ac-DLDHL[R5]DEK[R5]KLLKEK-NH2; staple (Z) 6-10)
– | inactive | Activity [6]: inactive | CC(C)C[C@H](NC(=O)[C@H](CCCCN)NC(=O)[C@H](CCC(=O)O)NC(=O)[C@H](CCCCN)NC(=O)[C@H](CCC(=O)O)NC(=O)[C@H](CC(=O)O)NC(=O)CCCCCNC(=O)CCCC[C@@H]1SC[C@@H]2NC(=O)N[C@@H]21)C(=O)N[C@]1(C)CCC/C=C\CCC[C@](C)(C(=O)N[C@@H](CCC(=O)O)C(=O)N[C@@H](CC(N)=O)C(=O)N[C@@H](CC(=O)O)C(=O)N[C@@H](CCCCN)C(=O)N[C@@H](CO)C(N)=O)NC(=O)[C@H](CCCCN)NC(=O)[C@H](CCC(=O)O)NC(=O)[C@H](CCCCN)NC1=O ({Biotin-Ahx}-DEKEKL[R5]KEK[R5]ENDKS-NH2; staple (Z) 7-11)
– | inactive | – | CC(C)C[C@H](NC(=O)[C@H](CC(=O)O)NC(=O)CCCCCNC(=O)CCCC[C@@H]1SC[C@@H]2NC(=O)N[C@@H]21)C(=O)N[C@@H](CC(=O)O)C(=O)N[C@@H](Cc1c[nH]cn1)C(=O)N[C@@H](CC(C)C)C(=O)N[C@]1(C)CCC/C=C\CCC[C@](C)(C(=O)N[C@@H](CCCCN)C(=O)N[C@@H](CC(C)C)C(=O)N[C@@H](CC(C)C)C(=O)N[C@@H](CCCCN)C(=O)N[C@@H](CCC(=O)O)C(=O)N[C@@H](CCCCN)C(N)=O)NC(=O)[C@H](CCCCN)NC(=O)[C@H](CCC(=O)O)NC(=O)[C@H](CC(=O)O)NC1=O ({Biotin-Ahx}-DLDHL[R5]DEK[R5]KLLKEK-NH2; staple (Z) 6-10)
– | Active | Kd [7]: 337 nM; Activity (Albumin): Not Active; Activity [8]: Active | CC[C@H](C)C(NC(=O)CCCCCNC(=O)CCCC[C@@H]1SC[C@@H]2NC(=O)N[C@@H]21)C(=O)N[C@H](C(=O)N[C@@H](CCC(=O)O)C(=O)N[C@@H](CC(C)C)C(=O)N[C@@H](CCC(=O)O)C(=O)N[C@]1(C)CCC/C=C\CCC[C@](C)(C(=O)N[C@@H](CC(C)C)C(=O)N[C@@H](CCCCN)C(=O)N[C@@H](CC(=O)O)C(=O)N[C@@H](CCC(=O)O)C(=O)N[C@@H](CCCCN)C(=O)N[C@@H](CCC(=O)O)C(N)=O)NC(=O)[C@H](CC(=O)O)NC(=O)[C@H](CC(C)C)NC(=O)[C@H](CC(=O)O)NC1=O)C(C)C (stereo partly specified) ({Biotin-Ahx}-[ξIle]VELE[R5]DLD[R5]LKDEKE-NH2; staple (Z) 6-10)
inactive | – | – | Ac-DEKEKLLKEKGENDKS-NH2
inactive | – | – | Ac-DLDHLKDEKEKLLKEK-NH2
inactive | – | Stability [2]: Unstable | Ac-IVELEQDLDHLKDEKE-NH2
